Reference: PubChem BioAssay (NCI)
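All cell lines were grown in 96-well plates and treated with compound for 48 hours. GI50: concentration for 50% inhibition of growth. At the TGI there is no net growth.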

What was measured:
Assay in all cases: NCI-60 cell line screen, 48 h
RPMI-8226 leukemia = tested on: RPMI-8226 leukemia
786-0 renal = tested on: 786-0 renal
CCRF-CEM leukemia = tested on: CCRF-CEM leukemia
UO-31 renal = tested on: UO-31 renal
DU-145 prostate = tested on: DU-145 prostate
HCT-116 colon = tested on: HCT-116 colon
HCT-15 colon = tested on: HCT-15 colon
OVCAR-8 ovarian = tested on: OVCAR-8 ovarian
TK-10 renal = tested on: TK-10 renal
SK-OV-3 ovarian = tested on: SK-OV-3 ovarian
MALME-3M melanoma = tested on: MALME-3M melanoma
MOLT-4 leukemia = tested on: MOLT-4 leukemia
SK-MEL-5 melanoma = tested on: SK-MEL-5 melanoma
BT-549 breast = tested on: BT-549 breast
A498 renal = tested on: A498 renal
SF-539 CNS = tested on: SF-539 CNS
SK-MEL-2 melanoma = tested on: SK-MEL-2 melanoma
MCF7 breast = tested on: MCF7 breast
EKVX NSCLC = tested on: EKVX NSCLC
SK-MEL-28 melanoma = tested on: SK-MEL-28 melanoma
RXF 393 renal = tested on: RXF 393 renal
COLO 205 colon = tested on: COLO 205 colon
OVCAR-4 ovarian = tested on: OVCAR-4 ovarian
M14 melanoma = tested on: M14 melanoma
IGROV1 ovarian = tested on: IGROV1 ovarian
HL-60(TB) leukemia = tested on: HL-60(TB) leukemia
SF-295 CNS = tested on: SF-295 CNS
NCI/ADR-RES ovarian = tested on: NCI/ADR-RES ovarian
SNB-75 CNS = tested on: SNB-75 CNS
KM12 colon = tested on: KM12 colon
NCI-H23 lung = tested on: NCI-H23 lung
NCI-H226 lung = tested on: NCI-H226 lung
OVCAR-5 ovarian = tested on: OVCAR-5 ovarian
HOP-62 NSCLC = tested on: HOP-62 NSCLC
HCC-2998 colon = tested on: HCC-2998 colon
LOX IMVI melanoma = tested on: LOX IMVI melanoma
HS 578T breast = tested on: HS 578T breast
UACC-257 melanoma = tested on: UACC-257 melanoma
NCI-H460 lung = tested on: NCI-H460 lung
SW-620 colon = tested on: SW-620 colon
CAKI-1 renal = tested on: CAKI-1 renal
ACHN renal = tested on: ACHN renal
OVCAR-3 ovarian = tested on: OVCAR-3 ovarian
T-47D breast = tested on: T-47D breast
SN12C renal = tested on: SN12C renal
MDA-MB-231 breast = tested on: MDA-MB-231 breast
MDA-MB-435 = tested on: MDA-MB-435
SF-268 CNS = tested on: SF-268 CNS
NCI-H522 lung = tested on: NCI-H522 lung
HOP-92 NSCLC = tested on: HOP-92 NSCLC
SNB-19 CNS = tested on: SNB-19 CNS
A549 NSCLC = tested on: A549 NSCLC
PC-3 prostate = tested on: PC-3 prostate
HT29 colon = tested on: HT29 colon
U251 CNS = tested on: U251 CNS
UACC-62 melanoma = tested on: UACC-62 melanoma
K-562 leukemia = tested on: K-562 leukemia

For `C[N+](C)(CCCCCC[N+](C)(C)CCCN1C(=O)c2cc3ccccc3cc2C1=O)CCCN1C(=O)c2ccccc2C1=O`, the GI50 (RPMI-8226 leukemia) was > 37.5 µM, the TGI (RPMI-8226 leukemia) was > 37.5 µM and the GI50 (786-0 renal) was > 37.5 µM. The TGI (786-0 renal) was > 37.5 µM, the GI50 (CCRF-CEM leukemia) was > 37.5 µM and the TGI (CCRF-CEM leukemia) was > 37.5 µM. For the same molecule, the GI50 (UO-31 renal) was > 37.5 µM, the TGI (UO-31 renal) was > 37.5 µM and the GI50 (DU-145 prostate) was > 37.5 µM. For the same molecule, the TGI (DU-145 prostate) was > 37.5 µM, the GI50 (HCT-116 colon) was > 37.5 µM and the TGI (HCT-116 colon) was > 37.5 µM. For the same molecule, the GI50 (HCT-15 colon) was > 37.5 µM, the TGI (HCT-15 colon) was > 37.5 µM and the GI50 (OVCAR-8 ovarian) was > 37.5 µM. For the same molecule, the TGI (OVCAR-8 ovarian) was > 37.5 µM, the GI50 (TK-10 renal) was > 37.5 µM and the TGI (TK-10 renal) was > 37.5 µM. The GI50 (SK-OV-3 ovarian) was > 37.5 µM, the TGI (SK-OV-3 ovarian) was > 37.5 µM and the GI50 (MALME-3M melanoma) was > 37.5 µM. The TGI (MALME-3M melanoma) was > 37.5 µM, the GI50 (MOLT-4 leukemia) was > 37.5 µM and the TGI (MOLT-4 leukemia) was > 37.5 µM. For the same molecule, the GI50 (SK-MEL-5 melanoma) was > 37.5 µM, the TGI (SK-MEL-5 melanoma) was > 37.5 µM and the GI50 (BT-549 breast) was > 37.5 µM. The TGI (BT-549 breast) was > 37.5 µM, the GI50 (A498 renal) was > 37.5 µM and the TGI (A498 renal) was > 37.5 µM. For the same molecule, the GI50 (SF-539 CNS) was > 37.5 µM, the TGI (SF-539 CNS) was > 37.5 µM and the GI50 (SK-MEL-2 melanoma) was > 37.5 µM. For the same molecule, the TGI (SK-MEL-2 melanoma) was > 37.5 µM, the GI50 (MCF7 breast) was > 37.5 µM and the TGI (MCF7 breast) was > 37.5 µM. For the same molecule, the GI50 (EKVX NSCLC) was > 37.5 µM, the TGI (EKVX NSCLC) was > 37.5 µM and the GI50 (SK-MEL-28 melanoma) was > 37.5 µM. The TGI (SK-MEL-28 melanoma) was > 37.5 µM, the GI50 (RXF 393 renal) was > 37.5 µM and the TGI (RXF 393 renal) was > 37.5 µM. For the same molecule, the GI50 (COLO 205 colon) was > 37.5 µM, the TGI (COLO 205 colon) was > 37.5 µM and the GI50 (OVCAR-4 ovarian) was > 37.5 µM. The TGI (OVCAR-4 ovarian) was > 37.5 µM, the GI50 (M14 melanoma) was > 37.5 µM and the TGI (M14 melanoma) was > 37.5 µM. The GI50 (IGROV1 ovarian) was > 37.5 µM, the TGI (IGROV1 ovarian) was > 37.5 µM and the GI50 (HL-60(TB) leukemia) was > 37.5 µM. For the same molecule, the TGI (HL-60(TB) leukemia) was > 37.5 µM, the GI50 (SF-295 CNS) was > 37.5 µM and the TGI (SF-295 CNS) was > 37.5 µM. The GI50 (NCI/ADR-RES ovarian) was > 37.5 µM, the TGI (NCI/ADR-RES ovarian) was > 37.5 µM and the GI50 (SNB-75 CNS) was > 37.5 µM. The TGI (SNB-75 CNS) was > 37.5 µM, the GI50 (KM12 colon) was > 37.5 µM and the TGI (KM12 colon) was > 37.5 µM. For the same molecule, the GI50 (NCI-H23 lung) was > 37.5 µM, the TGI (NCI-H23 lung) was > 37.5 µM and the GI50 (NCI-H226 lung) was > 37.5 µM. For the same molecule, the TGI (NCI-H226 lung) was > 37.5 µM, the GI50 (OVCAR-5 ovarian) was > 37.5 µM and the TGI (OVCAR-5 ovarian) was > 37.5 µM. For the same molecule, the GI50 (HOP-62 NSCLC) was > 37.5 µM, the TGI (HOP-62 NSCLC) was > 37.5 µM and the GI50 (HCC-2998 colon) was > 37.5 µM. The TGI (HCC-2998 colon) was > 37.5 µM, the GI50 (LOX IMVI melanoma) was > 37.5 µM and the TGI (LOX IMVI melanoma) was > 37.5 µM. For the same molecule, the GI50 (HS 578T breast) was > 37.5 µM, the TGI (HS 578T breast) was > 37.5 µM and the GI50 (UACC-257 melanoma) was > 37.5 µM. The TGI (UACC-257 melanoma) was > 37.5 µM, the GI50 (NCI-H460 lung) was > 37.5 µM and the TGI (NCI-H460 lung) was > 37.5 µM. The GI50 (SW-620 colon) was > 37.5 µM, the TGI (SW-620 colon) was > 37.5 µM and the GI50 (CAKI-1 renal) was > 37.5 µM. The TGI (CAKI-1 renal) was > 37.5 µM, the GI50 (ACHN renal) was > 37.5 µM and the TGI (ACHN renal) was > 37.5 µM. The GI50 (OVCAR-3 ovarian) was > 37.5 µM, the TGI (OVCAR-3 ovarian) was > 37.5 µM and the GI50 (T-47D breast) was > 37.5 µM. The TGI (T-47D breast) was > 37.5 µM, the GI50 (SN12C renal) was > 37.5 µM and the TGI (SN12C renal) was > 37.5 µM. For the same molecule, the GI50 (MDA-MB-231 breast) was > 37.5 µM, the TGI (MDA-MB-231 breast) was > 37.5 µM and the GI50 (MDA-MB-435) was > 37.5 µM. For the same molecule, the TGI (MDA-MB-435) was > 37.5 µM, the GI50 (SF-268 CNS) was > 37.5 µM and the TGI (SF-268 CNS) was > 37.5 µM. The GI50 (NCI-H522 lung) was > 37.5 µM, the TGI (NCI-H522 lung) was > 37.5 µM and the GI50 (HOP-92 NSCLC) was > 37.5 µM. The TGI (HOP-92 NSCLC) was > 37.5 µM, the GI50 (SNB-19 CNS) was > 37.5 µM and the TGI (SNB-19 CNS) was > 37.5 µM. For the same molecule, the GI50 (A549 NSCLC) was > 37.5 µM, the TGI (A549 NSCLC) was > 37.5 µM and the GI50 (PC-3 prostate) was > 37.5 µM. For the same molecule, the TGI (PC-3 prostate) was > 37.5 µM, the GI50 (HT29 colon) was > 37.5 µM and the TGI (HT29 colon) was > 37.5 µM. The GI50 (U251 CNS) was > 37.5 µM, the TGI (U251 CNS) was > 37.5 µM and the GI50 (UACC-62 melanoma) was > 37.5 µM. The TGI (UACC-62 melanoma) was > 37.5 µM, the GI50 (K-562 leukemia) was > 37.5 µM and the TGI (K-562 leukemia) was > 37.5 µM.
